According to article PMC9842534 (European Journal of Medicinal Chemistry, 2023):
Where a SMILES comes first, the peptide text is derived from it. Bridges are numbered along the chain shown (N, C = ends). [ ]: non-standard residue; d: D form. S5 = C=CCCC[C@](C)(N)C(=O)O

Biological target: SARS-CoV-2 Spike RBD-ACE2 interaction (Severe acute respiratory syndrome coronavirus 2, UniProt P0DTC2)
Format: binding, SARS-CoV-2 / human

CC(C)C[C@@H]1NC(=O)[C@H](CC(=O)O)NC(=O)[C@H](CCC(=O)O)NC(=O)[C@@](C)(NC(=O)[C@H](CCC(=O)O)NC(=O)[C@@H](N)Cc2c[nH]cn2)CCC/C=C\CCC[C@@](C)(C(=O)N[C@@H](Cc2ccc(O)cc2)C(=O)N[C@@H](CCC(N)=O)C(N)=O)NC1=O [Compound 6] (H-HE[S5]EDL[S5]YQ-NH2; staple (Z) 3-7; N-terminus and C-terminus assumed)
inhibition of the spike RBD-ACE2 interaction (in words): significant inhibitory activity
